Laboratory results taken from the NIST ThermoML archive (doi:10.1016/j.jct.2016.08.001).

Key:
[1] = xn = mol fraction of the nth substance listed; settings: 100 kPa, Liquid; for speed of sound: Frequency=3 MHz, Sing-around technique in a fixed-path interferometer; for mass density: Vibrating tube method
[2] = refractive index (Na D-line) (dimensionless); xn = mol fraction of the nth substance listed; settings: 100 kPa, Liquid, Standard Abbe refractometry

Nc1ccccc1 [aniline] + CCOC(=O)OCC
Settings	mass density, [1] [kg/m3]	refractive index, [2]	speed of sound, [1] [m/s]
298.15 K, x2 = 0	1017.1	1.5826	1636.8
298.15 K, x2 = 0.073	1014.2	1.5649	1594.4
298.15 K, x2 = 0.1652	1010.2	1.5435	1543.3
298.15 K, x2 = 0.2537	1006.4	1.5237	1497.7
298.15 K, x2 = 0.3387	1002.6	1.5053	1455.9
298.15 K, x2 = 0.4432	998	1.4835	1407.9
298.15 K, x2 = 0.5468	993	1.4626	1361.3
298.15 K, x2 = 0.6546	987.7	1.4419	1316
298.15 K, x2 = 0.7559	982.5	1.4235	1274.2
298.15 K, x2 = 0.884	975.9	1.4016	1222.6
303.15 K, x2 = 0	1012.7	1.5793	1617.5
303.15 K, x2 = 0.073	1009.8	1.562	1575.1
303.15 K, x2 = 0.1652	1005.7	1.5408	1523.9
303.15 K, x2 = 0.2537	1001.8	1.5212	1478.3
303.15 K, x2 = 0.3387	997.9	1.5029	1436.4
303.15 K, x2 = 0.4432	993.2	1.4813	1388.2
303.15 K, x2 = 0.5468	988.1	1.4606	1341.5
303.15 K, x2 = 0.6546	982.6	1.4401	1296
303.15 K, x2 = 0.7559	977.3	1.4216	1254.1
303.15 K, x2 = 0.884	970.5	1.3995	1202.3
308.15 K, x2 = 0	1008.4	1.576	1598.3
308.15 K, x2 = 0.073	1005.4	1.559	1555.8
308.15 K, x2 = 0.1652	1001.2	1.538	1504.6
308.15 K, x2 = 0.2537	997.1	1.5187	1458.5
308.15 K, x2 = 0.3387	993.2	1.5006	1416.8
308.15 K, x2 = 0.4432	988.3	1.4791	1368.5
308.15 K, x2 = 0.5468	983.1	1.4586	1321.7
308.15 K, x2 = 0.6546	977.5	1.4381	1276
308.15 K, x2 = 0.7559	972	1.4196	1234.1
308.15 K, x2 = 0.884	965.1	1.3974	1182.1
313.15 K, x2 = 0	1004.1	1.5727	1579.1
313.15 K, x2 = 0.073	1001	1.556	1536.6
313.15 K, x2 = 0.1652	996.6	1.5354	1485.3
313.15 K, x2 = 0.2537	992.5	1.5162	1439.1
313.15 K, x2 = 0.3387	988.5	1.4983	1397.4
313.15 K, x2 = 0.4432	983.5	1.477	1349
313.15 K, x2 = 0.5468	978.1	1.4566	1302
313.15 K, x2 = 0.6546	972.4	1.4362	1256.3
313.15 K, x2 = 0.7559	966.8	1.4176	1214.2
313.15 K, x2 = 0.884	959.8	1.3954	1162.1
318.15 K, x2 = 0	999.7	1.5694	1560
318.15 K, x2 = 0.073	996.5	1.5531	1517.6
318.15 K, x2 = 0.1652	992.1	1.5327	1466
318.15 K, x2 = 0.2537	987.9	1.5137	1419.8
318.15 K, x2 = 0.3387	983.7	1.496	1378
318.15 K, x2 = 0.4432	978.6	1.4749	1329.5
318.15 K, x2 = 0.5468	973.1	1.4545	1282.5
318.15 K, x2 = 0.6546	967.2	1.4343	1236.6
318.15 K, x2 = 0.7559	961.4	1.4156	1194.5
318.15 K, x2 = 0.884	954.3	1.3933	1142.2
323.15 K, x2 = 0	995.4	1.5661	1540.9
323.15 K, x2 = 0.073	992.1	1.5501	1498.2
323.15 K, x2 = 0.1652	987.6	1.5302	1446.8
323.15 K, x2 = 0.2537	983.2	1.5113	1400.5
323.15 K, x2 = 0.3387	979	1.4937	1358.7
323.15 K, x2 = 0.4432	973.7	1.4728	1310.1
323.15 K, x2 = 0.5468	968.1	1.4525	1263
323.15 K, x2 = 0.6546	962	1.4323	1217.1
323.15 K, x2 = 0.7559	956.1	1.4138	1174.9
323.15 K, x2 = 0.884	948.8	1.3913	1122.5
